The test system of experiment [1] is human adipose-derived stem cells (hADSCs). In words: sGAG formation (DMMB analysis) in hADSCs cultured in wells coated with or without hyaluronic acid. Format: cell-based. Particulars: day 7, standardized with DNA. On the procedure: Sulfated glycosaminoglycan (sGAG) is a major extracellular matrix of articular cartilage. In order to test whether simvastatin can promote the expression of sGAG in human adipose-derived stem cells (hADSCs) and its optimal concentration, the present invention first prepared hyaluronic acid (HA) coated wells by coating hyaluronic acid dissolved in 1 ml of phosphate buffer (PBS, 1% w/w) on a 24-well plate, standing at 37° C. for 48 hours, then washed with PBS two times. Human adipose-derived stem cells were seeded in wells containing 500 μl of basal medium at a density of 1×10^5 cells per well, wherein the basal medium contains Dulbecco's modified Eagle's medium (DMEM), and was additionally supplemented with 5% fetal bovine serum (FBS), 1% nonessential amino acids and 100 U/ml of penicillin/streptomycin (Gibco-BRL, Grand Island, N.Y.). During the culturing period, simvastatin at different concentrations (0.1 to 1 μM) was added to the well plate, and the medium was replaced with fresh one every two days. On day 7 after the cultivation started, cells were collected for dimethylmethylene blue (DMMB) analysis with Blyscan sulfated glycosaminoglycan reagent (Biocolor, Antrim, UK), and for standardization of sulfated glycosaminoglycan (sGAG) formation with DNA.

The test system of the next experiment is Sox-9. In words: real-time PCR, chondrogenic gene Sox-9 in hADSCs in HA-coated or non-coated wells. The format is cell-based, human. Particulars: 1 μM simvastatin, with or without 1% HA coating, 1 to 5 days. As to the method: (§1) Human adipose-derived stem cells (hADSCs) were cultured in wells coated with hyaluronic acid (HA) and without hyaluronic acid (non-HA), and treated with or without 1 μM of simvastatin (SIM) for 1 to 5 days. […]
(§2) Cells were harvested on designated days and analyzed for the expression of BMP-2 and chondrogenic genes using real-time PCR. […] Real-time PCR reactions were performed and monitored by using iQTM SYBR Green® supermix (Bio-Rad Laboratories Inc, Hercules, Calif.) and a quantitative real-time PCR detection system (Bio-Rad Laboratories Inc, Hercules, Calif.). […] The expression level of each of the target genes, as previously described, was calculated as 2-ΔΔCt. For each gene of interest, four readings were performed for each of the experimental samples, each experiment was repeated for at least three times. […]
A general note: Quantitative PCR measures a nucleic acid by following its amplification.

In a further experiment the test system is aggrecan. The experiment is described as follows: real-time PCR, chondrogenic gene aggrecan in hADSCs in HA-coated or non-coated wells. Format: cell-based, human. Particulars: 1 μM simvastatin, with or without 1% HA coating, 1 to 5 days. On the procedure: as §1, §2
The subject of a further experiment is Col II. The experiment is described as follows: real-time PCR, chondrogenic gene Col II in hADSCs in HA-coated or non-coated wells. The format is cell-based, human. As to conditions: 1 μM simvastatin, with or without 1% HA coating, 1 to 5 days. On the procedure:
as §1, §2

A further experiment concerns BMP-2. In words: real-time PCR, BMP-2 gene expression in hADSCs in HA-coated or non-coated wells. The format is cell-based, human. As to conditions: relative to Non-HA group day 1 = 1, simvastatin 1 μM, HA 1%. On the procedure: Human adipose-derived stem cells (hADSCs) were cultured in wells coated with hyaluronic acid (HA) and without hyaluronic acid (non-HA), and treated with or without 1 μM of simvastatin (SIM) for 1 to 5 days. The present invention was therefore divided into four experimental groups: (1) No hyaluronic acid (Non-HA) group: human adipose-derived stem cells were cultured in wells not coated with hyaluronic acid and not treated with simvastatin (1 μM); (2) No hyaluronic acid plus simvastatin (Non-HA+Sim) group: human adipose-derived stem cells were cultured in wells not coated with hyaluronic acid but treated with simvastatin (1 μM); (3) Hyaluronic acid (HA) group: human adipose-derived stem cells were cultured in wells coated with hyaluronic acid but not treated with simvastatin (1 μM); and (4) Hyaluronic acid plus simvastatin (HA+Sim) group: human adipose-derived stem cells were cultured in wells coated with hyaluronic acid and treated with simvastatin (1 μM).
Cells were harvested on designated days and analyzed for the expression of BMP-2 and chondrogenic genes using real-time PCR. Total RNA of these cells was extracted by following the manufacturer's instructions and using TRIzol reagent (Gibco BRL, Rockville, Md.). In short, a reaction volume of 20 μl was taken which contained 0.5 to 1 μg of total RNA, and then RNA was reverse-transcribed into cDNA by using the SuperScript First-Strand Synthesis System (Invitrogen). Real-time PCR reactions were performed and monitored by using iQTM SYBR Green® supermix (Bio-Rad Laboratories Inc, Hercules, Calif.) and a quantitative real-time PCR detection system (Bio-Rad Laboratories Inc, Hercules, Calif.). […] The expression level of each of the target genes, as previously described, was calculated as 2-ΔΔCt. For each gene of interest, four readings were performed for each of the experimental samples, each experiment was repeated for at least three times. […]

The subject of a further experiment is osteocalcin. In words: real-time PCR, osteocalcin gene expression in hADSCs in HA-coated or non-coated wells. The format is cell-based, human. As to conditions: day 1 to day 5; relative to Non-HA group day 1 = 1; simvastatin 1 μM. As to the method:
as §1, §2

This note sets out measurements from patent US20180169136A1, “USE OF PHARMACEUTICAL COMPOSITION IN PREPARATION OF DRUG FOR PROMOTING CHONDROCYTE GENERATION” (KAOHSIUNG MEDICAL UNIVERSITY, priority 2015, published 2018).

Several values for one entry are separate records, joined by “and”; a condition that tells them apart may be missing. Identical values can stand only once.

`CCC(C)(C)C(=O)O[C@H]1C[C@@H](C)C=C2C=C[C@H](C)[C@H](CC[C@@H]3C[C@@H](O)CC(=O)O3)[C@H]21` [simvastatin]: the “expression level of sGAG” value came to 0.5 µg/µg in experiment [1] (absence of hyaluronic acid (Non-HA), simvastatin 0.1 μM); 0.5 µg/µg in experiment [1] (absence of hyaluronic acid (Non-HA), simvastatin 0.5 μM); 0.7 µg/µg in experiment [1] (absence of hyaluronic acid (Non-HA), simvastatin 1 μM); 1.3 µg/µg in experiment [1] (presence of 1% hyaluronic acid, simvastatin 0.1 μM); 2.5 µg/µg in experiment [1] (presence of 1% hyaluronic acid, simvastatin 0.5 μM); 2.8 µg/µg in experiment [1] (presence of 1% hyaluronic acid, simvastatin 1 μM). The “expression of chondrogenic gene Sox-9” value with Sox-9 is on record as “failed to effectively enhance”. Further, the “expression of chondrogenic gene aggrecan” value in the experiment on aggrecan is listed as “failed to effectively enhance”. Besides, the “expression of chondrogenic gene Col II” value in the experiment with Col II was “failed to effectively enhance”. The “expression of BMP-2 gene” value is 1.2 fold in the experiment with BMP-2 (day 1); 0.8 fold in the experiment with BMP-2 (day 3); 1.1 fold and 2.1 fold in the experiment on BMP-2 (day 5, listed as Non-HA+Sim). Also, in the experiment with osteocalcin, the “expression of osteocalcin gene” value is “significantly increased”.
